Experimental data published in patent US12076307B2, “Compositions for prevention or treatment of acute radiation syndrome and other radiation exposure” (priority 2017, dated 2024).

Experiments:
[1] = In vitro metabolic stability / metabolite screening, statements over all species; assay type: in vitro ADME, rat, dog, monkey, human; conditions: 100 μM
Description: [^14C]EC-18 or the positive control (7-ethoxycoumarin; 7-EC) reacted with microsomes prepared from hepatocytes of rats, dogs, monkeys, and humans, with or without cofactors, for 60 and 120 min. Then, the residual EC-18 concentration over time was measured by LC-RID ([^14C]EC-18) or LC-MS/MS (7-EC) (FIG. 63 and FIG. 64).
The LC-RID chromatographic profiles of radioactive metabolites produced in the 2-hr incubation reaction mixtures of the same test systems A, B, and C used to assess the metabolic and non-metabolic elimination rates of EC-18 were compared to the LC-UV chromatographic profiles of the synthetic reference material. […] The relative radioactivity of EC-18 accounted for 42-67% of total radioactivity. The peaks designated as M2, M3, and M5 were also determined in all species, and their relative radioactivity accounted for 12-34% of total radioactivity. The peaks of M4 and M6 were determined in monkeys and humans. M1 was abundantly detected in all species, but it was assumed to be a peak of early elution. The LC-UV chromatograms of reaction mixtures in each test system (FIGS. 65A-65C) and the relative radioactivity of the screened metabolites are shown in Table 25.

CYP1A2 [2] = target: T1, CYP1A2 (Homo sapiens, UniProt P05177); assay: biochemical; assay type: in vitro ADME
T1 construct: incubated with human liver microsomes; from tissue; host or cells: human liver microsomes

CYP1A2 [3] = assay type: in vitro ADME, human; conditions: Positive Control, 50 μM; n=3
CYP2C19 = CYP2C19 (Homo sapiens, UniProt P33261); assay: CYP enzyme inhibition in human liver microsomes, CYP2C19
Source text: (§1) CYP1A2, CYP2C9, CYP2C19, CYP2D6, and CYP3A4 are the CYP subfamily, which plays a critical role in the metabolism of most drugs.

CYP2D6 = CYP2D6 (Homo sapiens, UniProt P10635); assay: CYP enzyme inhibition in human liver microsomes, CYP2D6
Source text: as §1

Chain of CYP2C19 (P33261 whole entry): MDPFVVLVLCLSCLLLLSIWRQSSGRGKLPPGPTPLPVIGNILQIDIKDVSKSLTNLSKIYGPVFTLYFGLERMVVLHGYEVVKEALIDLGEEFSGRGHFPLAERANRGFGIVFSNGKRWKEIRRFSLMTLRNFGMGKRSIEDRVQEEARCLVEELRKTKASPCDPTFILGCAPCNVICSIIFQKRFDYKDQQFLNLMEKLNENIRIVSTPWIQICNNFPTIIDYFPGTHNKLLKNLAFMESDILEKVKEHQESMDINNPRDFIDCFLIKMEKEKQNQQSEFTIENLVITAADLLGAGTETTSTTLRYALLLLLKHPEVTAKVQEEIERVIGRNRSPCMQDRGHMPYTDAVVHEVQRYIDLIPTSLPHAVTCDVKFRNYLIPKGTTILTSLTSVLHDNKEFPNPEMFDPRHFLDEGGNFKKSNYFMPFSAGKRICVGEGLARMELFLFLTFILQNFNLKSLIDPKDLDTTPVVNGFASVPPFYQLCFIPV
Chain of CYP2D6 (P10635 whole entry): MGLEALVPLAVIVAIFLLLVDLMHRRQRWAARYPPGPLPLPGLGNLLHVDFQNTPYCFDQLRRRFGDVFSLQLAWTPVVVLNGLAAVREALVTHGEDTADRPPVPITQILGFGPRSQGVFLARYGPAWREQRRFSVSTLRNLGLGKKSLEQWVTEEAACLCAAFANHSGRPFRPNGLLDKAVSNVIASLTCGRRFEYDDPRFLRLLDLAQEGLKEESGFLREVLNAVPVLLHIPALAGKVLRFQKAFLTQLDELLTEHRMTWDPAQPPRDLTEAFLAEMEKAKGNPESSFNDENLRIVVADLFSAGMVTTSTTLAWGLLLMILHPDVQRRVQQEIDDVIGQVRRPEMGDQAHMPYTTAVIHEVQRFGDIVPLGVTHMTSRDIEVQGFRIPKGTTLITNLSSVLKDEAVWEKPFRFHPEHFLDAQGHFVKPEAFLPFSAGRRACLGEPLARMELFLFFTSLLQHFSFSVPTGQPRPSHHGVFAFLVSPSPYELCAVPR
T1 sequence (P05177 whole entry): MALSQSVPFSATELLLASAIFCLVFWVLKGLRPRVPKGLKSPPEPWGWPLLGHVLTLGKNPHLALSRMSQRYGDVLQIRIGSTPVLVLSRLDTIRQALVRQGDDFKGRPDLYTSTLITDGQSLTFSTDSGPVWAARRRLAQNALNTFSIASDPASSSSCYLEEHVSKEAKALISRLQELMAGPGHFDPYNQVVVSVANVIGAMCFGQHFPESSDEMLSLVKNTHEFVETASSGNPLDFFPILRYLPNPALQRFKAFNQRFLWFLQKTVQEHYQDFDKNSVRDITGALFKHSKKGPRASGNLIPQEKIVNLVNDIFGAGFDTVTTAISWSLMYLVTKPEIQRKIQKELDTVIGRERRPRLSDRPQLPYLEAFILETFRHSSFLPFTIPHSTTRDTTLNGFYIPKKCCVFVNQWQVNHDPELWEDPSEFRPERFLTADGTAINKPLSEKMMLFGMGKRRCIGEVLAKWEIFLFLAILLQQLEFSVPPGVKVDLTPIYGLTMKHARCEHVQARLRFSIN

Compound: CCOc1ccc2ccc(=O)oc2c1 [7-EC, 7-ethoxycoumarin, reference compound]
- share of initial concentration eliminated ([1]; 1 hr, test systems A and B, rats, dogs, monkeys, humans): ≥ 99%
- share of initial concentration retained ([1]; 2 hrs, test system C): ≥ 92%
- IC50 (CYP1A2 [2]): 1700 nM

Compound: COc1ccc2[nH]c([S+]([O-])Cc3ncc(C)c(OC)c3C)nc2c1 (stereo not drawn) [omeprazole, reference compound]
- Enzyme Activity CYP1A2 (CYP1A2 [3]): 6.56 ± 2.86 pmol/106 Cells/Min
- IC50 (CYP2C19): 6 µM

Compound: CC(CN1c2ccccc2Sc2ccccc21)N(C)C (stereo not drawn) [promethazine, reference compound]
- IC50 (CYP2D6): 67.9 µM
